Test results reported in patent publication US11083725B2 (priority 2014, dated 2021).

Tested on: NHBE cells
Assay: Biolog metabolic array: substrate use by NHBE cells with or without CA09 infection
Type: cell-based, human
Conditions: for Substrate use, 590 nm absorbance normalized to zero hour, 1 hr: Biolog PMM2, 1 hr; for Substrate use, 590 nm absorbance normalized to zero hour, 5 hr: Biolog PMM2, 5 hr; for Substrate use, 590 nm absorbance normalized to zero hour, 7 hr: Biolog PMM2, 7 hr
[1] = Control (uninfected) NHBE cells
[2] = Virus (CA09-infected, MOI 1) NHBE cells
[3] = Virus: CA09-infected NHBE cells, MOI 1, Biolog PMM2
[4] = Virus (CA09-infected NHBE cells, MOI 1)

SMILES	590 nm absorbance normalized to zero hour (substrate use), 1 hr [1]	590 nm absorbance normalized to zero hour (substrate use), 2 hr [1]	590 nm absorbance normalized to zero hour (substrate use), 3 hr [1]	590 nm absorbance normalized to zero hour (substrate use), 4 hr [1]	590 nm absorbance normalized to zero hour (substrate use), 6 hr [1]	590 nm absorbance normalized to zero hour (substrate use), 8 hr [1]	590 nm absorbance normalized to zero hour (substrate use), 9 hr [1]	590 nm absorbance normalized to zero hour (substrate use), 10 hr [1]	590 nm absorbance normalized to zero hour (substrate use), 11 hr [1]	590 nm absorbance normalized to zero hour (substrate use), 1 hr [3]	590 nm absorbance normalized to zero hour (substrate use), 2 hr [3]	590 nm absorbance normalized to zero hour (substrate use), 3 hr [3]	590 nm absorbance normalized to zero hour (substrate use), 4 hr [3]	590 nm absorbance normalized to zero hour (substrate use), 5 hr [3]	590 nm absorbance normalized to zero hour (substrate use), 6 hr [3]	590 nm absorbance normalized to zero hour (substrate use), 7 hr [3]	590 nm absorbance normalized to zero hour (substrate use), 8 hr [3]	590 nm absorbance normalized to zero hour (substrate use), 9 hr [3]	590 nm absorbance normalized to zero hour (substrate use), 10 hr [3]	590 nm absorbance normalized to zero hour (substrate use), 11 hr [3]	further results
CC(=O)CC(=O)O [Acetoacetic Acid]	1.24	1.37	2.22	2.13	0.39	1.52	1.66	1.49	2.20	1.26	1.40	1.48	1.54	1.64	1.67	1.71	1.74	1.81	1.74	1.81	Substrate use, 590 nm absorbance normalized to zero hour, 1 hr [1]: 1.24; Substrate use, 590 nm absorbance normalized to zero hour, 5 hr [1]: 2.15; Substrate use, 590 nm absorbance normalized to zero hour, 7 hr [1]: 1.53; 590 nm absorbance normalized to zero hour (substrate use), 1 hr [2]: 1.26; 590 nm absorbance normalized to zero hour (substrate use), 2 hr [2]: 1.40; 590 nm absorbance normalized to zero hour (substrate use), 3 hr [2]: 1.48; 590 nm absorbance normalized to zero hour (substrate use), 4 hr [2]: 1.54; 590 nm absorbance normalized to zero hour (substrate use), 5 hr [2]: 1.64; 590 nm absorbance normalized to zero hour (substrate use), 6 hr [2]: 1.67; 590 nm absorbance normalized to zero hour (substrate use), 7 hr [2]: 1.71; 590 nm absorbance normalized to zero hour (substrate use), 8 hr [2]: 1.74; 590 nm absorbance normalized to zero hour (substrate use), 9 hr [2]: 1.81; 590 nm absorbance normalized to zero hour (substrate use), 10 hr [2]: 1.74; 590 nm absorbance normalized to zero hour (substrate use), 11 hr [2]: 1.81
Nc1ncnc2c1ncn2[C@@H]1O[C@H](CO)[C@@H](O)[C@H]1O [Adenosine]	2.85	1.34	1.67	1.86	2.50	3.10	3.78	3.46	3.32	1.39	1.23	1.60	1.77	1.96	2.16	2.38	2.56	2.88	2.56	2.60	Substrate use, 590 nm absorbance normalized to zero hour, 1 hr [1]: 2.85; Substrate use, 590 nm absorbance normalized to zero hour, 5 hr [1]: 2.21; Substrate use, 590 nm absorbance normalized to zero hour, 7 hr [1]: 2.97; 590 nm absorbance normalized to zero hour (substrate use), 1 hr [4]: 1.39; 590 nm absorbance normalized to zero hour (substrate use), 2 hr [4]: 1.23; 590 nm absorbance normalized to zero hour (substrate use), 3 hr [4]: 1.60; 590 nm absorbance normalized to zero hour (substrate use), 4 hr [4]: 1.77; 590 nm absorbance normalized to zero hour (substrate use), 5 hr [4]: 1.96; 590 nm absorbance normalized to zero hour (substrate use), 6 hr [4]: 2.16; 590 nm absorbance normalized to zero hour (substrate use), 7 hr [4]: 2.38; 590 nm absorbance normalized to zero hour (substrate use), 8 hr [4]: 2.56; 590 nm absorbance normalized to zero hour (substrate use), 9 hr [4]: 2.88; 590 nm absorbance normalized to zero hour (substrate use), 10 hr [4]: 2.56; 590 nm absorbance normalized to zero hour (substrate use), 11 hr [4]: 2.60
OC[C@@H](O)[C@@H](O)[C@@H](O)CO [Adonitol]	0.57	0.78	0.93	0.98	1.35	1.40	1.55	1.43	1.46	0.21	0.26	0.29	0.31	0.34	0.36	0.38	0.39	0.42	0.44	0.43	Substrate use, 590 nm absorbance normalized to zero hour, 1 hr [1]: 0.57; Substrate use, 590 nm absorbance normalized to zero hour, 5 hr [1]: 1.16; Substrate use, 590 nm absorbance normalized to zero hour, 7 hr [1]: 1.28; 590 nm absorbance normalized to zero hour (substrate use), 1 hr [4]: 0.21; 590 nm absorbance normalized to zero hour (substrate use), 2 hr [4]: 0.26; 590 nm absorbance normalized to zero hour (substrate use), 3 hr [4]: 0.29; 590 nm absorbance normalized to zero hour (substrate use), 4 hr [4]: 0.31; 590 nm absorbance normalized to zero hour (substrate use), 5 hr [4]: 0.34; 590 nm absorbance normalized to zero hour (substrate use), 6 hr [4]: 0.36; 590 nm absorbance normalized to zero hour (substrate use), 7 hr [4]: 0.38; 590 nm absorbance normalized to zero hour (substrate use), 8 hr [4]: 0.39; 590 nm absorbance normalized to zero hour (substrate use), 9 hr [4]: 0.42; 590 nm absorbance normalized to zero hour (substrate use), 10 hr [4]: 0.44; 590 nm absorbance normalized to zero hour (substrate use), 11 hr [4]: 0.43
O=C(O)CC(O)(CC(=O)O)C(=O)O [Citric Acid]	1.40	1.41	1.16	1.15	1.07	1.05	1.05	1.05	1.04	1.54	1.94	2.21	2.31	2.64	2.74	2.85	2.95	3.10	2.94	2.81	Substrate use, 590 nm absorbance normalized to zero hour, 1 hr [1]: 1.40; Substrate use, 590 nm absorbance normalized to zero hour, 5 hr [1]: 1.22; Substrate use, 590 nm absorbance normalized to zero hour, 7 hr [1]: 1.04; 590 nm absorbance normalized to zero hour (substrate use), 1 hr [2]: 1.54; 590 nm absorbance normalized to zero hour (substrate use), 2 hr [2]: 1.94; 590 nm absorbance normalized to zero hour (substrate use), 3 hr [2]: 2.21; 590 nm absorbance normalized to zero hour (substrate use), 4 hr [2]: 2.31; 590 nm absorbance normalized to zero hour (substrate use), 5 hr [2]: 2.64; 590 nm absorbance normalized to zero hour (substrate use), 6 hr [2]: 2.74; 590 nm absorbance normalized to zero hour (substrate use), 7 hr [2]: 2.85; 590 nm absorbance normalized to zero hour (substrate use), 8 hr [2]: 2.95; 590 nm absorbance normalized to zero hour (substrate use), 9 hr [2]: 3.10; 590 nm absorbance normalized to zero hour (substrate use), 10 hr [2]: 2.94; 590 nm absorbance normalized to zero hour (substrate use), 11 hr [2]: 2.81
O=C[C@H](O)[C@@H](O)[C@H](O)[C@H](O)CO [D-(+)-Glucose]	–	–	–	–	–	–	–	–	–	0.82	1.44	1.76	1.96	2.64	2.91	3.23	3.59	4.21	4.43	5.05	–
